Laboratory results: ChEMBL document CHEMBL4020788, “Synthesis, SAR and molecular docking studies of benzo[d]thiazole-hydrazones as potential antibacterial and antifungal agents” (2017)
In brackets after ≈: the same amount, converted by molar mass.

Columns and labels:
Format in all cases: functional
Staphylococcus aureus [1] = assay: Antibacterial activity against Staphylococcus aureus at 25 ug/ml after 24 hrs by agar well diffusion method; settings: read-out: DIZ
Staphylococcus aureus [2] = assay: Antibacterial activity against Staphylococcus aureus at 50 ug/ml after 24 hrs by agar well diffusion method; settings: read-out: DIZ
Staphylococcus aureus [3] = assay: Antibacterial activity against Staphylococcus aureus at 75 ug/ml after 24 hrs by agar well diffusion method; settings: read-out: DIZ
Staphylococcus aureus [4] = assay: Antibacterial activity against Staphylococcus aureus at 100 ug/ml after 24 hrs by agar well diffusion method; settings: read-out: DIZ
Bacillus subtilis [5] = assay: Antibacterial activity against Bacillus subtilis at 25 ug/ml after 24 hrs by agar well diffusion method; settings: read-out: DIZ
Bacillus subtilis [6] = assay: Antibacterial activity against Bacillus subtilis at 50 ug/ml after 24 hrs by agar well diffusion method; settings: read-out: DIZ
Bacillus subtilis [7] = assay: Antibacterial activity against Bacillus subtilis at 75 ug/ml after 24 hrs by agar well diffusion method; settings: read-out: DIZ
Bacillus subtilis [8] = assay: Antibacterial activity against Bacillus subtilis at 100 ug/ml after 24 hrs by agar well diffusion method; settings: read-out: DIZ
Escherichia coli [9] = assay: Antibacterial activity against Escherichia coli at 25 ug/ml after 24 hrs by agar well diffusion method; settings: read-out: DIZ
Escherichia coli [10] = assay: Antibacterial activity against Escherichia coli at 50 ug/ml after 24 hrs by agar well diffusion method; settings: read-out: DIZ
Escherichia coli [11] = assay: Antibacterial activity against Escherichia coli at 75 ug/ml after 24 hrs by agar well diffusion method; settings: read-out: DIZ
Escherichia coli [12] = assay: Antibacterial activity against Escherichia coli at 100 ug/ml after 24 hrs by agar well diffusion method; settings: read-out: DIZ
Klebsiella pneumoniae [13] = assay: Antibacterial activity against Klebsiella pneumoniae at 25 ug/ml after 24 hrs by agar well diffusion method; settings: read-out: DIZ
Klebsiella pneumoniae [14] = assay: Antibacterial activity against Klebsiella pneumoniae at 50 ug/ml after 24 hrs by agar well diffusion method; settings: read-out: DIZ
Klebsiella pneumoniae [15] = assay: Antibacterial activity against Klebsiella pneumoniae at 75 ug/ml after 24 hrs by agar well diffusion method; settings: read-out: DIZ
Klebsiella pneumoniae [16] = assay: Antibacterial activity against Klebsiella pneumoniae at 100 ug/ml after 24 hrs by agar well diffusion method; settings: read-out: DIZ
Staphylococcus aureus [17] = assay: Antibacterial activity against methicillin resistant Staphylococcus aureus MRSA090 at 25 ug/ml after 24 hrs by agar well diffusion method; settings: MRSA090, 24 h, read-out: DIZ
Staphylococcus aureus [18] = assay: Antibacterial activity against methicillin resistant Staphylococcus aureus MRSA090 at 50 ug/ml after 24 hrs by agar well diffusion method; settings: MRSA090, 24 h, read-out: DIZ
Staphylococcus aureus [19] = assay: Antibacterial activity against methicillin resistant Staphylococcus aureus MRSA090 at 75 ug/ml after 24 hrs by agar well diffusion method; settings: MRSA090, 24 h, read-out: DIZ
Staphylococcus aureus [20] = assay: Antibacterial activity against methicillin resistant Staphylococcus aureus MRSA090 at 100 ug/ml after 24 hrs by agar well diffusion method; settings: MRSA090, 24 h, read-out: DIZ
Aspergillus niger [21] = assay: Antifungal activity against Aspergillus niger at 25 ug/ml after 48 hrs by agar well diffusion method; settings: read-out: DIZ
Aspergillus niger [22] = assay: Antifungal activity against Aspergillus niger at 50 ug/ml after 48 hrs by agar well diffusion method; settings: read-out: DIZ
Aspergillus niger [23] = assay: Antifungal activity against Aspergillus niger at 75 ug/ml after 48 hrs by agar well diffusion method; settings: read-out: DIZ
Aspergillus niger [24] = assay: Antifungal activity against Aspergillus niger at 100 ug/ml after 48 hrs by agar well diffusion method; settings: read-out: DIZ
Fusarium verticillioides [25] = assay: Antifungal activity against Fusarium moniliforme at 25 ug/ml after 48 hrs by agar well diffusion method; settings: read-out: DIZ
Fusarium verticillioides [26] = assay: Antifungal activity against Fusarium moniliforme at 50 ug/ml after 48 hrs by agar well diffusion method; settings: read-out: DIZ
Fusarium verticillioides [27] = assay: Antifungal activity against Fusarium moniliforme at 75 ug/ml after 48 hrs by agar well diffusion method; settings: read-out: DIZ
Fusarium verticillioides [28] = assay: Antifungal activity against Fusarium moniliforme at 100 ug/ml after 48 hrs by agar well diffusion method; settings: read-out: DIZ
Fusarium oxysporum [29] = assay: Antifungal activity against Fusarium oxysporum at 25 ug/ml after 48 hrs by agar well diffusion method; settings: read-out: DIZ
Fusarium oxysporum [30] = assay: Antifungal activity against Fusarium oxysporum at 50 ug/ml after 48 hrs by agar well diffusion method; settings: read-out: DIZ
Fusarium oxysporum [31] = assay: Antifungal activity against Fusarium oxysporum at 75 ug/ml after 48 hrs by agar well diffusion method; settings: read-out: DIZ
Fusarium oxysporum [32] = assay: Antifungal activity against Fusarium oxysporum at 100 ug/ml after 48 hrs by agar well diffusion method; settings: read-out: DIZ
Klebsiella pneumoniae [33] = assay: Antibacterial activity against Klebsiella pneumoniae incubated for overnight by microdilution method
Staphylococcus aureus [34] = assay: Antibacterial activity against Staphylococcus aureus incubated for overnight by microdilution method
Bacillus subtilis [35] = assay: Antibacterial activity against Bacillus subtilis incubated for overnight by microdilution method
Escherichia coli [36] = assay: Antibacterial activity against Escherichia coli incubated for overnight by microdilution method
Staphylococcus aureus [37] = assay: Antibacterial activity against methicillin resistant Staphylococcus aureus MRSA090 incubated for overnight by microdilution method
Aspergillus niger [38] = assay: Antifungal activity against Aspergillus niger after 48 to 72 hrs by microdilution method
Fusarium verticillioides [39] = assay: Antifungal activity against Fusarium moniliforme after 48 to 72 hrs by microdilution method
Fusarium oxysporum [40] = assay: Antifungal activity against Fusarium oxysporum after 48 to 72 hrs by microdilution method

SMILES | zone of inhibition at 25 µg/mL (Staphylococcus aureus [1]) | zone of inhibition at 50 µg/mL (Staphylococcus aureus [2]) | zone of inhibition at 75 µg/mL (Staphylococcus aureus [3]) | zone of inhibition at 100 µg/mL (Staphylococcus aureus [4]) | zone of inhibition at 25 µg/mL (Bacillus subtilis [5]) | zone of inhibition at 50 µg/mL (Bacillus subtilis [6]) | zone of inhibition at 75 µg/mL (Bacillus subtilis [7]) | zone of inhibition at 100 µg/mL (Bacillus subtilis [8]) | zone of inhibition at 25 µg/mL (Escherichia coli [9]) | zone of inhibition at 50 µg/mL (Escherichia coli [10]) | zone of inhibition at 75 µg/mL (Escherichia coli [11]) | zone of inhibition at 100 µg/mL (Escherichia coli [12]) | zone of inhibition at 25 µg/mL (Klebsiella pneumoniae [13]) | zone of inhibition at 50 µg/mL (Klebsiella pneumoniae [14]) | zone of inhibition at 75 µg/mL (Klebsiella pneumoniae [15]) | zone of inhibition at 100 µg/mL (Klebsiella pneumoniae [16]) | zone of inhibition at 25 µg/mL (Staphylococcus aureus [17]) | zone of inhibition at 50 µg/mL (Staphylococcus aureus [18]) | zone of inhibition at 75 µg/mL (Staphylococcus aureus [19]) | zone of inhibition at 100 µg/mL (Staphylococcus aureus [20]) | other results
COc1cc(/C=N/Nc2nc3cccc(C)c3s2)cc(OC)c1OC | 22 mm | 28 mm | 33 mm | 38 mm | 19 mm | 24 mm | 28 mm | 33 mm | 20 mm | 25 mm | 31 mm | 36 mm | 21 mm | 27 mm | 33 mm | 38 mm | 19 mm | 25 mm | 31 mm | 34 mm | zone of inhibition at 25 µg/mL (Aspergillus niger [21]): 9 mm; zone of inhibition at 50 µg/mL (Aspergillus niger [22]): 14 mm; zone of inhibition at 75 µg/mL (Aspergillus niger [23]): 20 mm; zone of inhibition at 100 µg/mL (Aspergillus niger [24]): 21 mm; zone of inhibition at 25 µg/mL (Fusarium verticillioides [25]): 23 mm; zone of inhibition at 50 µg/mL (Fusarium verticillioides [26]): 28 mm; zone of inhibition at 75 µg/mL (Fusarium verticillioides [27]): 33 mm; zone of inhibition at 100 µg/mL (Fusarium verticillioides [28]): 37 mm; zone of inhibition at 25 µg/mL (Fusarium oxysporum [29]): 7 mm; zone of inhibition at 50 µg/mL (Fusarium oxysporum [30]): 11 mm; zone of inhibition at 75 µg/mL (Fusarium oxysporum [31]): 17 mm; zone of inhibition at 100 µg/mL (Fusarium oxysporum [32]): 20 mm; MIC (Klebsiella pneumoniae [33]): 22 µg/mL (≈ 61.5 µM); MIC (Staphylococcus aureus [34]): 19 µg/mL (≈ 53.2 µM); MIC (Bacillus subtilis [35]): 18 µg/mL (≈ 50.4 µM); MIC (Escherichia coli [36]): 20 µg/mL (≈ 56 µM); MIC (Staphylococcus aureus [37]): 19 µg/mL (≈ 53.2 µM); MIC (Aspergillus niger [38]): 30 µg/mL (≈ 83.9 µM); MIC (Fusarium verticillioides [39]): 26 µg/mL (≈ 72.7 µM); MIC (Fusarium oxysporum [40]): 23 µg/mL (≈ 64.3 µM)
Cc1cccc2nc(N/N=C/c3cc(O)c(O)c(O)c3)sc12 | 17 mm | 24 mm | 28 mm | 31 mm | 14 mm | 22 mm | 27 mm | 35 mm | 14 mm | 20 mm | 26 mm | 37 mm | 17 mm | 23 mm | 28 mm | 37 mm | 20 mm | 26 mm | 33 mm | 37 mm | zone of inhibition at 25 µg/mL (Aspergillus niger [21]): 10 mm; zone of inhibition at 50 µg/mL (Aspergillus niger [22]): 14 mm; zone of inhibition at 75 µg/mL (Aspergillus niger [23]): 20 mm; zone of inhibition at 100 µg/mL (Aspergillus niger [24]): 23 mm; zone of inhibition at 25 µg/mL (Fusarium verticillioides [25]): 10 mm; zone of inhibition at 50 µg/mL (Fusarium verticillioides [26]): 17 mm; zone of inhibition at 75 µg/mL (Fusarium verticillioides [27]): 26 mm; zone of inhibition at 100 µg/mL (Fusarium verticillioides [28]): 34 mm; zone of inhibition at 25 µg/mL (Fusarium oxysporum [29]): 15 mm; zone of inhibition at 50 µg/mL (Fusarium oxysporum [30]): 22 mm; zone of inhibition at 75 µg/mL (Fusarium oxysporum [31]): 27 mm; zone of inhibition at 100 µg/mL (Fusarium oxysporum [32]): 33 mm; MIC (Klebsiella pneumoniae [33]): 24 µg/mL (≈ 76.1 µM); MIC (Staphylococcus aureus [34]): 17 µg/mL (≈ 53.9 µM); MIC (Bacillus subtilis [35]): 15 µg/mL (≈ 47.6 µM); MIC (Escherichia coli [36]): 19 µg/mL (≈ 60.2 µM); MIC (Staphylococcus aureus [37]): 18 µg/mL (≈ 57.1 µM); MIC (Aspergillus niger [38]): 28 µg/mL (≈ 88.8 µM); MIC (Fusarium verticillioides [39]): 25 µg/mL (≈ 79.3 µM); MIC (Fusarium oxysporum [40]): 22 µg/mL (≈ 69.8 µM)
Cc1cccc2nc(N/N=C/c3cc4ccccc4[nH]3)sc12 | 14 mm | 18 mm | 24 mm | 30 mm | 10 mm | 14 mm | 19 mm | 21 mm | 17 mm | 24 mm | 30 mm | 33 mm | 4 mm | 9 mm | 18 mm | 24 mm | 16 mm | 23 mm | 27 mm | 30 mm | zone of inhibition at 25 µg/mL (Aspergillus niger [21]): 12 mm; zone of inhibition at 50 µg/mL (Aspergillus niger [22]): 19 mm; zone of inhibition at 75 µg/mL (Aspergillus niger [23]): 24 mm; zone of inhibition at 100 µg/mL (Aspergillus niger [24]): 30 mm; zone of inhibition at 25 µg/mL (Fusarium verticillioides [25]): 8 mm; zone of inhibition at 50 µg/mL (Fusarium verticillioides [26]): 14 mm; zone of inhibition at 75 µg/mL (Fusarium verticillioides [27]): 9 mm; zone of inhibition at 100 µg/mL (Fusarium verticillioides [28]): 22 mm; zone of inhibition at 25 µg/mL (Fusarium oxysporum [29]): 17 mm; zone of inhibition at 50 µg/mL (Fusarium oxysporum [30]): 24 mm; zone of inhibition at 75 µg/mL (Fusarium oxysporum [31]): 31 mm; zone of inhibition at 100 µg/mL (Fusarium oxysporum [32]): 36 mm; MIC (Klebsiella pneumoniae [33]): 25 µg/mL (≈ 81.6 µM); MIC (Staphylococcus aureus [34]): 24 µg/mL (≈ 78.3 µM); MIC (Bacillus subtilis [35]): 25 µg/mL (≈ 81.6 µM); MIC (Escherichia coli [36]): 24 µg/mL (≈ 78.3 µM); MIC (Staphylococcus aureus [37]): 22 µg/mL (≈ 71.8 µM); MIC (Aspergillus niger [38]): 25 µg/mL (≈ 81.6 µM); MIC (Fusarium verticillioides [39]): 24 µg/mL (≈ 78.3 µM); MIC (Fusarium oxysporum [40]): 22 µg/mL (≈ 71.8 µM)
